Test results as given in PMC4740378, “Export of malaria proteins requires co-translational processing of the PEXEL motif independent of phosphatidylinositol-3-phosphate binding” (Nature Communications, 2016).
pKd: −log10 of the molar value.

Target: T1, p40PX (GST-p40PX, aa 1-148) (Homo sapiens, UniProt Q15080)
T1 construct: gene NCF4; PX domain, residues 1-148, N-terminal GST fusion (pGEX; glutathione-purified, detected with anti-GST), E. coli
T1 sequence (Q15080 1-148): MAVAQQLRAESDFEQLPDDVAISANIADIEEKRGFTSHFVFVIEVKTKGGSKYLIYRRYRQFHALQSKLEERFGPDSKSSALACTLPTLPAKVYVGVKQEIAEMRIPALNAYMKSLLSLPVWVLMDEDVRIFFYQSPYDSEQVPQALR
Test: SPR, Biacore […], L1 chip with liposomes
Assay type: binding
Details: PC:PE:PI(3)P 75:20:5 liposomes, PC/PE control subtracted; 150 mM NaCl, 50 mM HEPES pH 7.5, 25 °C; own-purified protein

- pKd: 6.71
SMILES: CCCCCCCCCCCCCCCC(=O)OC[C@H](COP(=O)(O)O[C@@H]1[C@H](O)[C@H](OP(=O)(O)O)[C@@H](O)[C@H](O)[C@H]1O)OC(=O)CCCCCCCCCCCCCCC [PI(3)P-diC16, D-myo-phosphatidylinositol 3-phosphate di-C16]
